target: unphosphorylated-BTK kinase domain (UP-BTK), GST-tagged human BTK (389-659aa) (Homo sapiens (Human), UniProt Q06187); test: BTK kinase Lanthascreen binding assay; settings: Lanthascreen tracer competition, 60 minutes incubation; pIC50 = negative log of the IC50 in molar
Method in brief: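 Tracer-displacement binding assay against the non-phosphorylated enzyme, read by Lanthascreen. Reported: pIC50.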

Sequence of unphosphorylated-BTK kinase domain (UP-BTK), GST-tagged human BTK (389-659aa) (Q06187 389-659): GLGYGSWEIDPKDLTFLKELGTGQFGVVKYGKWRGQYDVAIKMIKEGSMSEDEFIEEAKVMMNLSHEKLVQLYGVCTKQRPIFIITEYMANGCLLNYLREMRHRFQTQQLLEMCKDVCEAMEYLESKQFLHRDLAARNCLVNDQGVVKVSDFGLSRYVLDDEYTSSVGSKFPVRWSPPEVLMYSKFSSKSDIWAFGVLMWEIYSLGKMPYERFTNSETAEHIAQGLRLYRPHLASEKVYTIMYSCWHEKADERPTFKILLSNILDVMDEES

Going from `Cc1cc(Oc2ccccc2)ccc1N1C(=O)Nc2c(NC(=O)C3CCN(C(=O)CC#N)CC3)sc3nccc1c23` [Example 819, 1-(2-Cyanoacetyl)-N-(5-(2-methyl-4-phenoxyphenyl)-4-oxo-4,5-dihydro-3H-1-thia-3,5,8-triazaacenaphthylen-2-yl)piperidine-4-carboxamide] to `COc1ccc(N2C(=O)Nc3c(C(=O)NC4CCCN(C(=O)/C(C#N)=C/C5CC5)C4)sc4nccc2c34)c(C)c1` (stereo not drawn) [Example 878, (E)-N-(1-(2-Cyano-3-cyclopropylacryloyl)piperidin-3-yl)-5-(4-methoxy-2-methylphenyl)-4-oxo-4,5-dihydro-3H-1-thia-3,5,8-triazaacenaphthylene-2-carboxamide], the “BTK_I_binding pIC50” value rises from 5.9 to 7.1.

`C=CC(=O)N1CCC[C@@H](NC(=O)c2sc3nccc4c3c2NC(=O)N4c2ccc(Oc3ccc(C)cn3)cc2)C1` [Example 786, (R)—N-(1-Acryloylpiperidin-3-yl)-5-(4-((5-methylpyridin-2-yl)oxy)phenyl)-4-oxo-4,5-dihydro-3H-1-thia-3,5,8-triazaacenaphthylene-2-carboxamide] and `C=CC(=O)N1CCC[C@@H](NC(=O)c2sc3nccc4c3c2NC(=O)N4c2ccnc(C(C)C)c2)C1` [Example 697, (R)—N-(1-Acryloylpiperidin-3-yl)-5-(2-isopropylpyridin-4-yl)-4-oxo-4,5-dihydro-3H-1-thia-3,5,8-triazaacenaphthylene-2-carboxamide] are the same in “BTK_I_binding pIC50” value: 6.9 for the first, 6.9 for the second.

For `Cc1cc(OCC(C)C)ncc1N1C(=O)Nc2c(C(=O)N[C@@H]3CCCNC3)sc3nccc1c23` (single isomer, unassigned) [Example 760, (R)-5-(*R)-(6-Isobutoxy-4-methylpyridin-3-yl)-4-oxo-N-(piperidin-3-yl)-4,5-dihydro-3H-1-thia-3,5,8-triazaacenaphthylene-2-carboxamide], the “BTK_I_binding pIC50” value was under 6.

same assay, conditions: pIC50 = negative log of the IC50 in molar; 60 minutes incubation, 50 nM Tracer 236

Compared with `C=CC(=O)N1CCC[C@@H](NC(=O)c2sc3nccc4c3c2NC(=O)N4c2ccc(Oc3cccc4ccoc34)cc2C)C1` [Example 16, (R)—N-(1-Acryloylpiperidin-3-yl)-5-(4-(benzofuran-7-yloxy)-2-methylphenyl)-4-oxo-4,5-dihydro-3H-1-thia-3,5,8-triazaacenaphthylene-2-carboxamide], `CNCC(=O)N1CCC[C@@H](NC(=O)c2sc3nccc4c3c2NC(=O)N4c2ccc(Oc3ccccc3)cc2C)C1` (single isomer, unassigned) [Example 253, (R)-5-(*R)-(2-Methyl-4-phenoxyphenyl)-N-(1-(2-(methylamino)acetyl)piperidin-3-yl)-4-oxo-4,5-dihydro-3H-1-thia-3,5,8-triazaacenaphthylene-2-carboxamide] is lower in “BTK_I_binding pIC50” value: 7.3 for the first, 6.2 for the second.

Going from `COCc1cccc(Oc2ccc(N3C(=O)Nc4c(C(=O)N[C@@H]5CCCN(C)C5)sc5nccc3c45)c(C)c2)c1` [Example 226, (R)-5-(4-(3-(Methoxymethyl)phenoxy)-2-methylphenyl)-N-(1-methylpiperidin-3-yl)-4-oxo-4,5-dihydro-3H-1-thia-3,5,8-triazaacenaphthylene-2-carboxamide] to `Cc1cc(Oc2ccccc2)ccc1N1C(=O)Nc2c(C(=O)N[C@@H]3CCCN(C(=O)CCN(C)C)C3)sc3nccc1c23` [Example 130, (R)—N-(1-(3-(Dimethylamino)propanoyl)piperidin-3-yl)-5-(2-methyl-4-phenoxyphenyl)-4-oxo-4,5-dihydro-3H-1-thia-3,5,8-triazaacenaphthylene-2-carboxamide], the “BTK_I_binding pIC50” value rises from 6.5 to 7.1.

Compared with `C=C(C(=O)N1CCC[C@@H](NC(=O)c2sc3nccc4c3c2NC(=O)N4c2ccc(Oc3ccccc3)cc2C)C1)C(F)(F)F` [Example 144, (R)-5-(2-Methyl-4-phenoxyphenyl)-4-oxo-N-(1-(2-(trifluoromethyl)acryloyl)piperidin-3-yl)-4,5-dihydro-3H-1-thia-3,5,8-triazaacenaphthylene-2-carboxamide], `Cc1cc(Oc2ccccc2)ccc1N1C(=O)Nc2c(C(=O)N[C@@H]3C[C@@H](O)CN(C)C3)sc3nccc1c23` [Example 168, N-((3R,5R)-5-Hydroxy-1-methylpiperidin-3-yl)-5-(2-methyl-4-phenoxyphenyl)-4-oxo-4,5-dihydro-3H-1-thia-3,5,8-triazaacenaphthylene-2-carboxamide] is lower in “BTK_I_binding pIC50” value: 7.5 for the first, 6.8 for the second.

Compared with `Cc1cc(Oc2ccccc2)ccc1N1C(=O)Nc2c(C(=O)NC3CCCN(C(=O)/C=C/CNC(=O)CCCC(=O)NCCCOCCOCCOCCCNC(=O)CCCC[C@H]4SC[C@@H]5NC(=O)N[C@@H]54)C3)sc3nccc1c23` (stereo partly drawn) [Example 237, N^1-((E)-4-(3-(5-(2-methyl-4-phenoxyphenyl)-4-oxo-4,5-dihydro-3H-1-thia-3,5,8-triazaacenaphthylene-2-carboxamido)piperidin-1-yl)-4-oxobut-2-en-1-yl)-N5-(15-oxo-19-((3aS,4R,6aR)-2-oxohexahydro-1H-thieno[34-d]imidazol-4-yl)-4,7,10-trioxa-14-azanonadecyl)glutaramide], `C=CC(=O)N1CC[C@@H](N(C)C(=O)c2sc3nccc4c3c2NC(=O)N4c2ccc(Oc3ccccc3)cc2C)C1` [Example 137, (R)—N-(1-Acryloylpyrrolidin-3-yl)-N-methyl-5-(2-methyl-4-phenoxyphenyl)-4-oxo-4,5-dihydro-3H-1-thia-3,5,8-triazaacenaphthylene-2-carboxamide] is lower in “BTK_I_binding pIC50” value: 6.9 for the first, 6.6 for the second.

same assay, conditions: unphosphorylated-BTK kinase domain, 50 nM Tracer 236, 60 minutes; pIC50 = negative log of the IC50 in molar

`O=C(N[C@@H]1CCCN(C(=O)n2ccnc2)C1)c1sc2nccc3c2c1NC(=O)N3c1ccc2c(c1)OC(F)(F)O2` [Example 454, (R)—N-(1-(1H-Imidazole-1-carbonyl)piperidin-3-yl)-5-(2,2-difluorobenzo[d][1.3]dioxol-5-yl)-4-oxo-4,5-dihydro-3H-1-thia-3,5,8-triazaacenaphthylene-2-carboxamide] was tested, and the “BTK_I_binding pIC50” value was under 5.

Compared with `COCC(=O)N1CCC[C@@H](NC(=O)c2sc3nccc4c3c2NC(=O)N4c2ccc(Oc3ccccc3)cc2C)C1` (single isomer, unassigned) [Example 495, (R)—N-(1-(2-Methoxyacetyl)piperidin-3-yl)-5-(*S)-(2-methyl-4-phenoxyphenyl)-4-oxo-4,5-dihydro-3H-1-thia-3,5,8-triazaacenaphthylene-2-carboxamide], `CC(=O)N1CCC[C@@H](NC(=O)c2sc3nccc4c3c2NC(=O)N4c2ccc(Oc3ccccc3)c(Cl)c2)C1` [Example 582, (R)—N-(1-Acetylpiperidin-3-yl)-5-(3-chloro-4-phenoxyphenyl)-4-oxo-4,5-dihydro-3H-1-thia-3,5,8-triazaacenaphthylene-2-carboxamide] is lower in “BTK_I_binding pIC50” value: 7.5 for the first, 6.7 for the second.

For `C=CC(=O)N1CCC[C@@H](NC(=O)c2sc3nccc4c3c2NC(=O)N4c2ccc(OC3CCC3)cc2C)C1` [Example 456, (R)—N-(1-Acryloylpiperidin-3-yl)-5-(4-cyclobutoxy-2-methylphenyl)-4-oxo-4,5-dihydro-3H-1-thia-3,5,8-triazaacenaphthylene-2-carboxamide], the “BTK_I_binding pIC50” value was 7.7.

same assay, conditions: unphosphorylated-BTK kinase domain, 60 minutes incubation, 50 nM Tracer 236; pIC50 = negative log of the IC50 in molar

With `C=CC(=O)N1CCC[C@@H](NC(=O)c2sc3nccc4c3c2NC(=O)N4c2ccc(Oc3cccnn3)nc2C)C1` [Example 975, (R)—N-(1-Acryloylpiperidin-3-yl)-5-(2-methyl-6-(pyridazin-3-yloxy)pyridin-3-yl)-4-oxo-4,5-dihydro-3H-1-thia-3,5,8-triazaacenaphthylene-2-carboxamide] the “BTK_I_binding pIC50” value was 5.0.

— patent US10800792B2, “Inhibitors of Bruton's tyrosine kinase and method of their use” (JANSSEN PHARMACEUTICA NV, priority 2015, dated 2020)
